Data reported in patent US9115137B2, “2,3,4,5-tetrahydro-1H-pyrido[4,3-B]indole compounds and methods of use thereof” (priority 2008, dated 2015).

Tests used:
[1] = biological target: T1, human recombinant serotonin (5-Hydroxytryptamine) 5-HT5A receptor (Homo sapiens, UniProt P47898); assay: Serotonin 5-HT5A radioligand binding ([3H]LSD); conditions: compound at 1 μM; CHO-K1 cells; read-out: Serotonin (1 μM) 5-HT5A, percent inhibition of specific binding
T1 construct: expressed in transfected cells; host or cells: CHO-K1 cells
T1 sequence (P47898 whole entry): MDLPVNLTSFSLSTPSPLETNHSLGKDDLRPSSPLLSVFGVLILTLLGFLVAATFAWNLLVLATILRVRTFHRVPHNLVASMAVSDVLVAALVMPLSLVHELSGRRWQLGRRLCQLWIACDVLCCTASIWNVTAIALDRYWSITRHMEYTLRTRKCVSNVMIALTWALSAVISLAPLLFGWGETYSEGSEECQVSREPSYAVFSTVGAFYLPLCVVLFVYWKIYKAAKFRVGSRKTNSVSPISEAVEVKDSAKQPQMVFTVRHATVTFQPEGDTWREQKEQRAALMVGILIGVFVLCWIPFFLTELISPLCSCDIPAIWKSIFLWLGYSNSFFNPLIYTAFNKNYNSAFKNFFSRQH
Method: To evaluate in radioligand binding assays the activity of compounds of the invention, human recombinant serotonin (5-Hydroxytryptamine) 5-HT5A receptor expressed in Chinese hamster ovary (CHO-K1) cells (Rees, S. et al., FEBS Lett. 355:242, 1994) in a modified Tris-HCl buffer (50 mM Tris-HCl, pH 7.4, 10 mM MgCl2, 0.5 mM EDTA) was used. Compounds of the invention were incubated with 1.7 nM [^3H]Lysergic acid diethylamide (LSD) for 60 minutes at 37° C. Non-specific binding was estimated in the presence of 100 μM Serotonin (5-HT). Receptor proteins were filtered and washed, the filters were then counted to determine [^3H]LSD specifically bound. Compounds were screened at 1 μM or lower, using 1% DMSO as vehicle. Compounds of the invention were tested in this biochemical assay and percent inhibition of specific binding was determined. Biochemical assay results are presented as the percent inhibition of specific binding in Table 7.

[2] = biological target: T2, rat adrenergic α1A receptor (Rattus norvegicus, UniProt P43140); assay: Adrenergic α1A radioligand binding ([3H]Prozosin); conditions: compound at 1 μM; Wistar Rat submaxillary glands; read-out: Adrenergic (1 μM) α1A, percent inhibition of specific binding
T2 construct: obtained from Wistar Rat submaxillary glands; from tissue; host or cells: Wistar rat submaxillary glands
T2 sequence (P43140 1-466): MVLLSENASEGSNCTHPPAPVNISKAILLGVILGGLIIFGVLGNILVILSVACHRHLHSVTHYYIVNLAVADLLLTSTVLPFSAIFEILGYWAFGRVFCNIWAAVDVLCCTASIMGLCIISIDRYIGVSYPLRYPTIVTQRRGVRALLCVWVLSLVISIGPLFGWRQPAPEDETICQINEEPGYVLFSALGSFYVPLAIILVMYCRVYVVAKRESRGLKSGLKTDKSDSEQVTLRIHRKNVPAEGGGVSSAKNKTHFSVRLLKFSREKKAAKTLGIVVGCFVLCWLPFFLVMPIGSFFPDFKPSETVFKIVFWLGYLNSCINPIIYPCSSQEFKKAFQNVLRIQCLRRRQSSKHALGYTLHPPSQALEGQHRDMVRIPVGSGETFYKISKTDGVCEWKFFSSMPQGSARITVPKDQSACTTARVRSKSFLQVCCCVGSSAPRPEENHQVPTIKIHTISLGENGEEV
Method: To evaluate in radioligand binding assays the activity of compounds of the invention, rat adrenergic α1A receptor obtained from Wistar Rat submaxillary glands (Michel, A. D. et al., Br. J. Pharmacol. 98:883, 1989) in a modified Tris-HCl buffer (50 mM Tris-HCl buffer, pH 7.4, 0.5 mM EDTA) was used. Compounds of the invention were incubated with 0.25 nM [^3H]Prozosin for 60 minutes at 25° C. Non-specific binding was estimated in the presence of 10 μM phentolamine. Receptor proteins were filtered and washed, the filters were then counted to determine [^3H]Prozosin specifically bound. Compounds of the invention were screened at 1 μM or lower, using 1% DMSO as vehicle. Compounds of the invention were tested in this biochemical assay and percent inhibition of specific binding was determined. Biochemical assay results are presented as the percent inhibition of specific binding in Table 6.

[3] = system: rat central imidazoline I2 receptor; assay: Central imidazoline I2 radioligand binding ([3H]Idazoxan); conditions: compound at 1 μM; Wistar Rat cerebral cortex
Method: To evaluate in radioligand binding assays the activity of compounds of the invention, rat central imidazoline I2 receptor obtained from Wistar Rat cerebral cortex (Brown, C. M. et al., Br. J. Pharmacol. 99:803, 1990) in a modified Tris-HCl buffer (50 mM Tris-HCl buffer, pH 7.4, 0.5 mM EDTA) was used. Compounds of the invention were incubated with 2 nM [^3H]Idazoxan for 30 minutes at 25° C. Non-specific binding was estimated in the presence of 1 μM Idazoxan. Receptor proteins were filtered and washed, the filters were then counted to determine [^3H]Idazoxan specifically bound. Compounds were screened at 1 μM or lower, using 1% DMSO as vehicle. Compounds of the invention were tested in this biochemical assay and percent inhibition of specific binding was determined. Biochemical assay results are presented as the percent inhibition of specific binding in Table 5.

[4] = biological target: T3, human recombinant serotonin (5-Hydroxytryptamine) 5-HT7 receptor (Homo sapiens, UniProt P34969); assay: Serotonin 5-HT7 radioligand binding ([3H]LSD); conditions: compound at 1 μM; CHO cells; read-out: Serotonin (1 μM) 5-HT7, percent inhibition of specific binding
T3 construct: expressed in transfected cells; host or cells: CHO cells
T3 sequence (P34969 whole entry): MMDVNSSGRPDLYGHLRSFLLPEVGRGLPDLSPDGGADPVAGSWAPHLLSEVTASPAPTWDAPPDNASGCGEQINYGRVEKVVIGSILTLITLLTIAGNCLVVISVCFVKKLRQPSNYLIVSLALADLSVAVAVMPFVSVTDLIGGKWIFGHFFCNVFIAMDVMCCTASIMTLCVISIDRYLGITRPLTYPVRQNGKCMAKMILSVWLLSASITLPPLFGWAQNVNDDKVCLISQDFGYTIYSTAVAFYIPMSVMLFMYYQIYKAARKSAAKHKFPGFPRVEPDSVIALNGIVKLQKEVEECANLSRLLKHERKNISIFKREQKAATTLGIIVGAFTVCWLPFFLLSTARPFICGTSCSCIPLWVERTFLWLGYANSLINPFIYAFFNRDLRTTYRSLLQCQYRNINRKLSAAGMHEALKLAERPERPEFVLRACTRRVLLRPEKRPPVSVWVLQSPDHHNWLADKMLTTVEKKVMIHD
Method: To evaluate in radioligand binding assays the activity of compounds of the invention, human recombinant serotonin (5-Hydroxytryptamine) 5-HT7 receptor expressed in Chinese hamster ovary (CHO) cells (Roth, B. L. et al., J. Pharmacol. Exp. Ther. 268:1403, 1994; Shen, Y. et al., J. Biol. Chem. 268:18200, 1993) in a modified Tris-HCl buffer (50 mM Tris-HCl, pH 7.4, 10 mM MgCl2, 0.5 mM EDTA) was used. Compounds of invention were incubated with 5.5 nM [^3H] Lysergic acid diethylamide (LSD) for 2 hours at 25° C. Non-specific binding was estimated in the presence of 10 μM Serotonin (5-HT). Receptor proteins were filtered and washed, the filters were then counted to determine [^3H]LSD specifically bound. Compounds were screened at 1 μM or lower, using 1% DMSO as vehicle. Biochemical assay results are presented as the percent inhibition of specific binding in Table 7.

[5] = biological target: T4, human recombinant serotonin (5-Hydroxytryptamine) 5-HT2A receptor (Homo sapiens, UniProt P28223); assay: Serotonin 5-HT2A radioligand binding ([3H]Ketanserin); conditions: compound at 1 μM; CHO-K1 cells; read-out: Serotonin (1 μM) 5-HT2A, percent inhibition of specific binding
T4 construct: expressed in transfected cells; host or cells: CHO-K1 cells
T4 sequence (P28223 whole entry): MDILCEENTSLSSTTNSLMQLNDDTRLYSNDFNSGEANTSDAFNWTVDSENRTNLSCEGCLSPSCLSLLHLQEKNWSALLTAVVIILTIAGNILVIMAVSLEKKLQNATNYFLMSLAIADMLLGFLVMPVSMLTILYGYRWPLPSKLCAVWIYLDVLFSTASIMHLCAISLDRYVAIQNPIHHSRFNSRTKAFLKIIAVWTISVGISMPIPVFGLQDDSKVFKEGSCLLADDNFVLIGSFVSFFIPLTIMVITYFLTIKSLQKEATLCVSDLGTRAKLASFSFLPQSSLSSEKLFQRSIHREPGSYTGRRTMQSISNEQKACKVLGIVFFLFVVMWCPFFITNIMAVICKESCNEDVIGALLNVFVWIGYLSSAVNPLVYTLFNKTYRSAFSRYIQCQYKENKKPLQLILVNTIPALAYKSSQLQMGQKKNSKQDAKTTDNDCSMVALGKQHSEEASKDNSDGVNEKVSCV
Method: To evaluate in radioligand binding assays the activity of compounds of the invention, human recombinant serotonin (5-Hydroxytryptamine) 5-HT2A receptor expressed in Chinese hamster ovary (CHO-K1) cells (Bonhaus, D. W. et al. Br. J. Pharmacol. 115:622, 1995; Saucier, C. and Albert, P. R., J. Neurochem. 68:1998, 1997) in a 50 mM Tris-HCl buffer, pH 7.4, was used. Compounds of the invention were incubated with 0.5 nM [^3H]Ketanserin for 60 minutes at 25° C. Non-specific binding was estimated in the presence of 1 μM Mianserin. Receptor proteins were filtered and washed, the filters were then counted to determine [^3H] Ketanserin specifically bound. Compounds were screened at 1 μM or lower, using 1% DMSO as vehicle. Biochemical assay results are presented as the percent inhibition of specific binding in Table 7.

Row | Compound | inhibition at 1 µM [5] [%] | also measured
1 | CCOC(=O)CCn1c2c(c3cc(C)ccc31)CN(C)CC2 [CD1, ethyl 3-(1,2,3,4-tetrahydro-2,8-dimethylpyrido[4,3-b]indol-5-yl)propanoate] | 89 | inhibition at 1 µM [1]: 39%; inhibition at 1 µM [2]: 79%; Imidazoline I2 Central (1 μM), percent inhibition of specific binding [3]: 55%; inhibition at 1 µM [4]: 85%
2 | Cc1ccc2c(c1)c1c(n2CC#N)CCN(C)C1 [CD61, 2-(1,2,3,4-tetrahydro-2,8-dimethylpyrido[4,3-b]indol-5-yl)acetonitrile] | 77 | inhibition at 1 µM [1]: 52%; inhibition at 1 µM [2]: 82%; Imidazoline I2 Central (1 μM), percent inhibition of specific binding [3]: 60%; inhibition at 1 µM [4]: 94%
3 | C#CCn1c2c(c3cc(C)ccc31)CN(C)CC2 [CD73, 2,8-dimethyl-5-(prop-2-ynyl)-2,3,4,5-tetrahydro-1H-pyrido[4,3-b]indole] | 87 | inhibition at 1 µM [1]: 63%; inhibition at 1 µM [2]: 65%; Imidazoline I2 Central (1 μM), percent inhibition of specific binding [3]: 73%; inhibition at 1 µM [4]: 91%
4 | Cc1ccc2c(c1)c1c(n2CCC#N)CCN(C)C1 [CD92, 3-(2,8-dimethyl-3,4-dihydro-1H-pyrido[4,3-b]indol-5(2H)-yl)propanenitrile] | 67 | 
5 | CN1CCc2c(c3cc(Cl)ccc3n2CCC#N)C1 [CD94, 3-(8-chloro-2-methyl-3,4-dihydro-1H-pyrido[4,3-b]indol-5(2H)-yl)propanenitrile] | 60 | 
6 | CNC(=O)CCn1c2c(c3cc(C)ccc31)CN(C)CC2 [Compound 1, 3-(1,2,3,4-tetrahydro-2,8-dimethylpyrido[4,3-b]indol-5-yl)-N-methylpropanamide] | 30 | inhibition at 1 µM [1]: 4%; inhibition at 1 µM [2]: 5%; Imidazoline I2 Central (1 μM), percent inhibition of specific binding [3]: 18%; inhibition at 1 µM [4]: 33%
7 | CN1CCc2c(c3cc(Cl)ccc3n2CC(=O)OC(C)(C)C)C1 [Compound 12, tert-butyl 2-(8-chloro-1,2,3,4-tetrahydro-2-methylpyrido[4,3-b]indol-5-yl)acetate] | 81 | 
8 | CN1CCc2c(c3cc(Cl)ccc3n2CC(=O)OCC2CCCCC2)C1 [Compound 14, cyclohexylmethyl 2-(8-chloro-1,2,3,4-tetrahydro-2-methylpyrido[4,3-b]indol-5-yl)acetate] | 103 | 
9 | CC(C)OC(=O)CCn1c2c(c3cc(Cl)ccc31)CN(C)CC2 [Compound 17, isopropyl 3-(8-chloro-1,2,3,4-tetrahydro-2-methylpyrido[4,3-b]indol-5-yl)propanoate] | 84 | 
10 | CN1CCc2c(c3cc(Cl)ccc3n2CCC(=O)OCc2ccccc2)C1 [Compound 19, benzyl 3-(8-chloro-1,2,3,4-tetrahydro-2-methylpyrido[4,3-b]indol-5-yl)propanoate] | 95 | 
11 | CN1CCc2c(c3cc(Cl)ccc3n2CCC(=O)OCC2CCCCC2)C1 [Compound 20, cyclohexylmethyl 3-(8-chloro-1,2,3,4-tetrahydro-2-methylpyrido[4,3-b]indol-5-yl)propanoate] | 102 | 
12 | CN1CCc2c(c3cc(Cl)ccc3n2CCC(=O)OC2CCCC2)C1 [Compound 21, cyclopentyl 3-(8-chloro-1,2,3,4-tetrahydro-2-methylpyrido[4,3-b]indol-5-yl)propanoate] | 98 | 
13 | Cc1ccc2c(c1)c1c(n2CC(=O)NC(C)(C)C)CCN(C)C1 [Compound 24, N-tert-butyl-2-(1,2,3,4-tetrahydro-2,8-dimethylpyrido[4,3-b]indol-5-yl)acetamide] | 9 | 
14 | Cc1ccc2c(c1)c1c(n2CC(=O)NCC2CCCCC2)CCN(C)C1 [Compound 26, N-(cyclohexylmethyl)-2-(1,2,3,4-tetrahydro-2,8-dimethylpyrido[4,3-b]indol-5-yl)acetamide] | 89 | 
15 | Cc1ccc2c(c1)c1c(n2CCC(=O)NC(C)(C)C)CCN(C)C1 [Compound 28] | 17 | 
16 | Cc1ccc2c(c1)c1c(n2CCC(=O)Nc2ccccc2)CCN(C)C1 [Compound 29] | 96 | 
17 | Cc1ccc2c(c1)c1c(n2CCC(N)=O)CCN(C)C1 [Compound 46, 3-(1,2,3,4-tetrahydro-2,8-dimethylpyrido[4,3-b]indol-5-yl)propanamide] | 33 | 
18 | Cc1ccc2c(c1)c1c(n2CCC(=O)NC(C)C)CCN(C)C1 [Compound 53] | 39 | 
19 | Cc1ccc2c(c1)c1c(n2CCNC(=O)c2ccc(F)cc2)CCN(C)C1 [Compound 66, 4-fluoro-N-(2-(1,2,3,4-tetrahydro-2,8-dimethylpyrido[4,3-b]indol-5-yl)ethyl)benzamide] | 98 | 
20 | CN1CCc2c(c3cc(Cl)ccc3n2CCC(N)=O)C1 [Compound 67, 3-(8-chloro-1,2,3,4-tetrahydro-2-methylpyrido[4,3-b]indol-5-yl)propanamide] | 55 | 
21 | Cc1ccc2c(c1)c1c(n2CCNC(=O)C2CCCC2)CCN(C)C1 [Compound 68, N-(2-(1,2,3,4-tetrahydro-2,8-dimethylpyrido[4,3-b]indol-5-yl)ethyl)cyclopentanecarboxamide] | 77 | 
22 | Cc1ccc2c(c1)c1c(n2CCNC(=O)c2ccncc2C)CCN(C)C1 [Compound 69, N-(2-(1,2,3,4-tetrahydro-2,8-dimethylpyrido[4,3-b]indol-5-yl)ethyl)-3-methylpyridine-4-carboxamide] | 30 | 
23 | Cc1ccc2c(c1)c1c(n2C2CCCCC2O)CCN(C)C1 (stereo not shown) [Compound 73, 2-(1,2,3,4-tetrahydro-2,8-dimethylpyrido[4,3-b]indol-5-yl)cyclohexanol] | 50 | inhibition at 1 µM [4]: 5%
